Reference: patent US20250262191A1, “NEW CRYSTAL FORM OF NITROGEN-CONTAINING TRICYCLIC COMPOUND AND USE THEREOF” (SUNSHINE LAKE PHARMA CO., LTD., priority 2021, published 2025)

Columns and labels:
[1] = Pharmacokinetic experiment in Beagle dogs, oral capsules; type: in vivo; details: male Beagle dogs, 5 mg/kg
Procedure: The crystal form H of the compound having Formula (I) was filled into capsules, which were used for oral administration.
Three male Beagle dogs weighing 8-12 kg were orally administered with capsules containing the test sample at a dose of 5 mg/kg, and blood samples were taken at time points of 0.25 h, 0.5 h, 1.0 h, 2.0 h, 4.0 h, 6.0 h, 8.0 h and 24 h. Standard curve was plotted based on concentrations of the samples in a suitable range, the concentration of the test sample in the plasma sample was measured and quantified by AB SCIEX API4000 LC-MS/MS at MRM mode. Pharmacokinetic parameters were calculated according to drug concentration-time curve using a noncompartmental method by WinNonLin 6.3 software.

[2] = Stability experiment (high-temperature, high-humidity and photostability tests); type: physicochemical
Procedure: (§1) (1) High-temperature test: A batch of the test sample was taken into a flat weighing bottle, divided into ≤5 mm thick thin layer. The sample was placed at 60° C. for 30 days. The sample was then sampled at day 5, day 13 and day 30, and the change of the sample's color was observed. The purity of the sample was detected by HPLC.
as §1, with “(2) High-humidity” for “(1) High-temperature”, “25° C., RH 90%±5%” for “60° C.”
as §1, with “(3) Photostability” for “(1) High-temperature”, “placed in an opened light box (with UV)” for “placed”, “the illuminance […], UV light ≥0.7 w/m^2” for “60° C.”

[3] = Hygroscopicity experiment by dynamic moisture adsorption (DVS); type: physicochemical; details: relative humidity of 80%, 25° C.
Procedure: The hygroscopicity of the present invention is measured using the DVS INT-Std dynamic moisture and gas adsorption analyzer of the Surface Measurement Systems Company in UK. The humidity test range was 0%-95%, the air flow was 200 mL/min, the temperature was 25° C., test point: take one test point per […] 5% humidity.
An appropriate amount of the test sample was taken and the hygroscopicity of the test sample was tested by dynamic moisture adsorption device. The description of the hygroscopic characteristics and the definition of the hygroscopic weight gain (Appendix 9103 of Chinese Pharmacopoeia 2020 Edition, Guidelines for Drug Hygroscopicity Tests, experimental conditions: 25° C.±1° C., 80%±2% relative humidity) are described in the table below: […]

[4] = High-humidity 25° C., RH 90%±5%, day 5
[5] = High-humidity 25° C., RH 90%±5%, day 13
[6] = High-humidity 25° C., RH 90%±5%, day 30
[7] = High-temperature 60° C., day 13
[8] = High-temperature 60° C., day 30
[9] = Lighting (light box with UV), day 5
[10] = Lighting (light box with UV), day 13
[11] = Lighting (light box with UV), day 30

AUC(0-t) ([1]; dog, plasma): 1130 ng·h/mL
Cmax ([1]; dog, plasma): 514 ng/mL
Tmax ([1]; dog, plasma): 1.33 h
exposure in Beagle dogs [1]: relatively large exposure
Appearance [2, 4]: White
Purity (HPLC) [2, 4]: 99.89%
Appearance [2, 5]: White
Purity (HPLC) [2, 5]: 99.92%
Appearance [2, 6]: White
Purity (HPLC) [2, 6]: 99.85%
Appearance ([2]; High-temperature 60° C., day 5): White
Purity (HPLC) ([2]; High-temperature 60° C., day 5): 99.89%
Appearance [2, 7]: White
Purity (HPLC) [2, 7]: 99.72%
Appearance [2, 8]: White
Purity (HPLC) [2, 8]: 99.86%
Appearance [2, 9]: White
Purity (HPLC) [2, 9]: 99.90%
Appearance [2, 10]: White
Purity (HPLC) [2, 10]: 99.91%
Appearance [2, 11]: White
Purity (HPLC) [2, 11]: 99.72%
Appearance ([2]; day 0): White
Purity (HPLC) ([2]; day 0): 99.83%
crystal structure stability ([2]; high temperature conditions): remains basically unchanged
crystal structure stability ([2]; high temperature, high humidity and/or lighting conditions): remains basically unchanged
changes in the appearance and chemical purity ([2]; high-temperature, high-humidity and/or lighting): no obvious changes
hygroscopic characteristics [3]: lightly hygroscopic
SMILES: O=C(O)c1ccc2c(c1)Oc1ccc(OCc3c(-c4c(Cl)cccc4Cl)noc3C3CC3)nc1C1(CC1)C2 [Crystal form H, 2-((5-cyclopropyl-3-(2,6-dichlorophenyl)isoxazol-4-yl)methoxy)-10H-spiro[benzo[6,7]oxepino[3,2-b]pyridine-11,1′-cyclopropane]-7-carboxylic acid]
